Experimental data published in US20210260108A1, “ZINC-CONTAINING, WATER-SOLUBLE POLYGLUTAMIC ACID COMPLEX COMPOSITION” (Alextand Co., Ltd, priority 2018, published 2021).

Settings: 1 g added to 25 mL of water at room temperature (about 25° C., 1 atmosphere)

With `[O]=[Zn]` [zinc oxide] the Water solubility was “almost insoluble”.
